In this assay the test system is Squirrel (Saimiri sciureus) monkeys with nigrostriatal damage. Nature of the assay: Levodopa-induced dyskinesias in MPTP-lesioned monkeys, nicotine in drinking solution before levodopa (Example 1). The format is in vivo. Conditions: for dyskinetic ratings 3 hours after the afternoon levodopa treatment: scale 0-4, mean ± SE. As to the method:
Animals: Squirrel (Saimiri sciureus) monkeys (n=7) were purchased from World Wide Primates (Miami, Fla.). The animals weighed between 0.6-0.9 kg and were in mid to late adulthood as determined from their general appearance (dentition, fur, other). Female monkeys were used since older animals were available that may better model Parkinson's disease. The animals were placed in quarantine upon arrival, and maintained in a temperature-controlled room (27±3° C.) with a relative humidity>30%, under a 13/11-hour light/dark cycle. Monkey food chow and fruits/vegetables were provided once daily, with water provided ad libitum. The monkeys were housed in separate cages to allow for clear behavioral assessments. The animals were released from quarantine after 1 month and treatments initiated. All procedures conformed to the National Institutes of Health Guide for the Care and Use of Laboratory Animals and were approved by the Institutional Animal Care and Use Committee at the Parkinson's Institute.
1-Methyl-4-phenyl-1,2,3,6-tetrahydropyridine (MPTP) administration: Prior to lesioning, the animals were allowed to acclimate to the colony and rated for parkinsonism as described (Langston et al. Ann Neurol. 2000; 47:S79-89). All values were within the normal range. The monkeys were then injected subcutaneously with 2.0 mg/kg MPTP (Sigma, St-Louis, Mo.) dissolved in saline. The animals were rated for parkinsonism 3-4 weeks after MPTP administration. The disability scores ranged from 0 (normal) to 28 for a severely parkinsonian animal. Animals were assessed for 1) spatial hypokinesia (reduction in use of the available cage space), 2) body bradykinesia (increased slowness in body movement), 3) left and 4) right manual dexterity, 5) balance, 6) freezing and 7) action tremor. If they were not parkinsonian, MPTP injection (1.0-2.0 mg/kg) was repeated from 2-5 times for total doses of 3.5 to 13.5 mg/kg. Despite multiple MPTP dosing, two of the animals were not stably parkinsonian.
Nicotine treatment: All monkeys (n=7) were then given a drinking solution for 3 weeks consisting of commercially available orange Gatorade® to mask nicotine's bitter taste (FIG. 1). The control group (n=4) was continued on Gatorade® only, while nicotine (free base) was added to the Gatorade of the treated group (n=3). Nicotine dosing was started at 50 μg/ml for 1 week, 150 μg/ml for 1 week, with the concentration increased by […] over the next few weeks, up to 650 μg/ml (FIG. 1).
Levodopa administration: Monkeys were administered levodopa/carbidopa (5 mg/kg and 1.25 mg/kg, respectively), prepared by crushing a tablet of Sinemet® CR 100/25 (DuPont Pharma) and dissolving it in water. This dose of levodopa is within the range of that prescribed to Parkinson's disease patients. The monkeys were gavaged twice daily at 3.5-hour intervals for 8 weeks at a time using a 5-day-on/2-day-off schedule (Hsu et al., J Pharmacol Exp Ther. 2004; 311:770-777). During levodopa treatment, the monkeys were given fruits in the morning and food pellets 3.5 hours after the afternoon levodopa dose to optimize gastrointestinal absorption.
Dyskinesias were rated from videotapes, as described (Hsu et al., J Pharmacol Exp Ther. 2004; 311:770-777). This included a one hour baseline period (no drugs) from ˜8:00-9:00 AM, followed by two 3.5-hour treatment periods with levodopa starting at ˜9:00 AM and ˜12:30 PM. Dyskinesias were rated for 2-minute periods at 30-minute intervals by two independent raters blinded to treatment. They were rated on a scale of 0 (no dyskinesias) to 4; a score of 1 was indicative of subtle dyskinesias that were not sustained; 2, mild dyskinesias that were sustained; 3, moderate dyskinesias that impaired the ability to remain stationary; 4, severe dyskinesias that were generalized and incapacitating.
Data analyses: The levodopa treatment protocol used in the present study involved a 5-day-on/2-day-off schedule.

Marks after values point to notes of the source that are not given here.

In the case of `CN1CCCC1c1cccnc1` (centres unmarked) [Nicotine, S-3-(1-methyl-2-pyrrolidinyl)pyridine], the “total dyskinesias (area under the curve of the time course)” value (all time points vs monkeys not receiving nicotine) is reported as “significant decrease”. Also, for the setting “animals pretreated with nicotine, levodopa naïve monkeys”, the “decline in levodopa-induced dyskinesias” value is listed as roughly 60%. For the same compound, the “levodopa-induced dyskinesias over the course of the day (time course)” value (nicotine up to 650 μg/ml in drinking solution, vs monkeys not receiving nicotine, entire 8-week period) was “significantly reduced”. Besides, the “peak dyskinesias (maximal dyskinetic score during the morning or afternoon)” value (throughout the 8-week levodopa treatment vs control) is “decreased”. For the same compound, the “dyskinetic ratings 3 hours after the afternoon levodopa treatment” value is, setting by setting: (week 2/3 of levodopa treatment, levodopa/carbidopa 5/1.25 mg/kg twice daily) 0.3 ± 0.3; (week 4 of levodopa treatment) 0*; (week 6 of levodopa treatment) 0*; (week 8 of levodopa treatment) 0.2 ± 0.2.

The values are drawn from patent US7718677B2, “Methods and compositions for reduction of side effects of therapeutic treatments” (priority 2007, dated 2010).
